Reference: ChEMBL document CHEMBL1131971, “Identification and initial structure-activity relationships of a novel non-peptide quinolone GnRH receptor antagonist” (Bioorg Med Chem Lett, 1999)

Molecular target: T1, Gonadotropin-releasing hormone receptor (Rattus norvegicus) (UniProt P30969)
T1 sequence (whole entry): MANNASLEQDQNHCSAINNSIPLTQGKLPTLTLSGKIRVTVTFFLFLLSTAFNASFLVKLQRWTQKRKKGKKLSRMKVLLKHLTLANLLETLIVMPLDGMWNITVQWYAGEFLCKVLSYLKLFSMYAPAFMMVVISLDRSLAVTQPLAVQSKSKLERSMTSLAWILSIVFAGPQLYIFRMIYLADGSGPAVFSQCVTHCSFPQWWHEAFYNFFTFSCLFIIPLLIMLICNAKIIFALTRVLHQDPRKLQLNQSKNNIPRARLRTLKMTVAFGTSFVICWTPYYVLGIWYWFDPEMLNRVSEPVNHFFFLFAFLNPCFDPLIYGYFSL
Experiment: Inhibitory activity at GnRH receptor in rat pituitary membranes.
Assay type: cell membranes
Design: concentration or dose not given beside the values
Settings: concentration not given here

| SMILES | inhibition [%] |
| --- | --- |
| Cc1cc(C)cc(-c2c(O)nc3ccc(C)cc3c2OCC2CCCN(C)C2)c1 (stereo not drawn) | < 50 |
| Cc1cc(C)cc(-c2c(O)nc3ccc([N+](=O)[O-])cc3c2OCC2CCCN(C)C2)c1 (stereo not drawn) | < 50 |
| NCCCOc1c(-c2ccccc2)c(O)nc2cc(Cl)ccc12 | < 50 |
| Cc1cc(C)cc(-c2c(O)nc3cccc(Cl)c3c2OCC2CCCN(C)C2)c1 (stereo not drawn) | < 50 |
| Oc1nc2cc(Cl)ccc2c(OCc2cccnc2)c1-c1ccccc1 | < 50 |
| O=C1c2ccccc2C(=O)N1CCCOc1c(-c2ccccc2)c(O)nc2cc(Cl)ccc12 | < 50 |
| COc1ccc2nc(O)c(-c3cc(C)cc(C)c3)c(OCC3CCCN(C)C3)c2c1 (stereo not drawn) | < 50 |
| Cc1cc(C)cc(-c2c(O)nc3cc(F)ccc3c2OCC2CCCN(C)C2)c1 (stereo not drawn) | < 50 |
| Cc1cc(C)cc(-c2c(O)nc3c(Cl)cccc3c2OCC2CCCN(C)C2)c1 (stereo not drawn) | < 50 |
| Oc1nc2cc(Cl)ccc2c(OCc2ccccc2)c1-c1ccccc1 | < 50 |
| CN(C)CCOc1c(-c2ccccc2)c(O)nc2cc(Cl)ccc12 | < 50 |
| Oc1nc2cc(Cl)ccc2c(OCc2ccncc2)c1-c1ccccc1 | < 50 |
| Oc1nc2cc(Cl)ccc2c(OCc2ccc3ccccc3n2)c1-c1ccccc1 | < 50 |
| COC(=O)c1ccc2c(OCC3CCCN(C)C3)c(-c3cc(C)cc(C)c3)c(O)nc2c1 (stereo not drawn) | < 50 |

Further lines, results first:

| inhibition [%] | SMILES |
| --- | --- |
| < 50 | Cc1cc(C)cc(-c2c(O)nc3ccc(Cl)cc3c2OCC2CCCN(C)C2)c1 (stereo not drawn) |
| < 50 | Cc1cc(C)cc(-c2c(O)nc3cc(Cl)ccc3c2OCC2CCNCC2)c1 |

Molecular target: T2, Gonadotropin-releasing hormone receptor (Rattus norvegicus, UniProt P30969)
T2 sequence (P30969 whole entry): T1 sequence (whole entry)
Experiment: Inhibition of [125I]buserelin to GnRH receptor in rat pituitary membranes.
Assay type: cell membranes, Membrane
Settings: not given

| SMILES | IC50 [nM] |
| --- | --- |
| Cc1cc(C)cc(-c2c(O)nc3cc(Cl)ccc3c2OCC(C)CN(C)C)c1 (stereo not drawn) | 6300 |
| CN(C)CCCOc1c(-c2ccccc2)c(O)nc2cc(Cl)ccc12 | 9000 |
| Cc1cc(C)cc(-c2c(O)nc3cc([N+](=O)[O-])ccc3c2OCC2CCCN(C)C2)c1 (stereo not drawn) | 1400 |
| Oc1nc2cc(Cl)ccc2c(OCc2ccccn2)c1-c1ccccc1 | 10000 |
| CN1CCCC(COc2c(-c3ccccc3)c(O)nc3cc(Cl)ccc23)C1 (stereo not drawn) | 4000 |
| CN1CCCCC(Oc2c(-c3ccccc3)c(O)nc3cc(Cl)ccc23)C1 (stereo not drawn) | 7000 |

Continued, values first:

| IC50 [nM] | SMILES |
| --- | --- |
| 150 | Cc1cc(C)cc(-c2c(OCCC3CCCCN3C)c3ccc(Br)cc3[nH]c2=O)c1 (stereo not drawn) |
| 300 | Cc1cc(C)cc(-c2c(OCC3CCCN(C)C3)c3ccc(Cl)cc3[nH]c2=O)c1 (stereo not drawn) |
| 3900 | Cc1cc(C)cc(-c2c(OCC3CCCN(C)C3)c3ccc(C)cc3[nH]c2=O)c1 (stereo not drawn) |
| 7500 | Cc1cc(C)cc(-c2c(OCCCN3CCCCC3)c3ccc(Cl)cc3[nH]c2=O)c1 |
| 1400 | Cc1cc(C)cc(-c2c(O)nc3cc(Cl)ccc3c2OCC2CN(C)CCO2)c1 (stereo not drawn) |
| 9000 | CN1CCCCC1COc1c(-c2ccccc2)c(=O)[nH]c2cc(Cl)ccc12 (stereo not drawn) |
| 4000 | Cc1cc(C)cc(-c2c(O)nc3cc(Cl)ccc3c2OCC2CCCCN2C)c1 (stereo not drawn) |
| 200 | Cc1cc(C)cc(-c2c(OCCC3CCCCN3C)c3ccc(Cl)cc3[nH]c2=O)c1 (stereo not drawn) |
| 500 | Cc1cc(C)cc(-c2c(O)nc3cc(Cl)ccc3c2OCC2CCCNC2)c1 (stereo not drawn) |
| 200 | Cc1cc(C)cc(-c2c(O)nc3cc(Cl)ccc3c2OCCC2CCCN2C)c1 (stereo not drawn) |
| 500 | Cc1cc(C)cc(-c2c(O)nc3cc(Cl)ccc3c2OCC2CCN(C)C2)c1 (stereo not drawn) |
| 100 | Cc1cc(C)cc(-c2c(OCCC3CCCCN3C)c3ccc(C(F)(F)F)cc3[nH]c2=O)c1 (stereo not drawn) |
| 300 | Cc1cc(C)cc(-c2c(O)nc3cc(Cl)ccc3c2OC2CCCN(C)CC2)c1 (stereo not drawn) |
| 32 | Cc1cc(C)cc(-c2c(OCCC3CCCCN3C)c3cc([N+](=O)[O-])c(Cl)cc3[nH]c2=O)c1 (stereo not drawn) |
| 1300 | Cc1cc(C)cc(-c2c(OC3CCN(C)CC3)c3ccc(Cl)cc3[nH]c2=O)c1 |
| 1300 | Cc1cc(C)cc(-c2c(O)nc3cc(Cl)ccc3c2OCC2CCCCN(C)C2)c1 (stereo not drawn) |
